The test system of series [1] is Nilaparvata lugens. As to the kind of experiment: Insecticidal Test on Nilaparvata lugens. The class given is in vivo. The settings on record: 144 h. How it is done: 10% emulsifiable concentrates (or 10% wettable powders) of compounds of the present invention were diluted with water containing a spreader to obtain 500 ppm solutions. Rice sheaths were soaked in the solutions for about 10 seconds, dried in air and put in test tubes. In each tube, five 2nd-instar nymphs of Nilaparvata lugens were released, and the tubes were capped with sponge and placed in an incubator at 25° C. 6 Days after, dead insects were counted, and the mortality (%) (the number of dead insects÷the number of released insects×100) was calculated. The test was carried out in duplicate.

Series [2] has as its system Bemisia argentifolii. The experiment in a line: Insecticidal Test on Bemisia argentifolii. The class given is in vivo. The conditions noted are these: 120 h. How it is done:
In styrol cups having an inner diameter of 7 cm, wet filter paper was laid, and kidney bean leaves cut to 3 cm were laid on the paper. 10% emulsifiable concentrates (or 10% wettable powders) of compounds of the present invention were diluted with water containing a spreader to obtain 500 ppm solutions. 2.5 ml of the solutions were sprayed from a rotary spray tower into the styrol cups (2.5 mg/cm^2). The leaves were dried in air, and adults of Bemisia argentifolii were released in the cups. The cups were closed and placed in an incubator at 25° C. 5 Days after, dead insects were counted, and the mortality was calculated by using the same equation as in Test Example 1. The test was carried out in duplicate.

Series [3] has as its system Myzus persicae. The experiment in a line: Insecticidal Test on Myzus persicae. Type of series: in vivo. The settings on record: foliar, 144 h. How it is done:
(§1) Wet absorbent cotton was laid on glass dishes having an inner diameter of 3 cm, and covered with leaves of Canarium album cut into circles of the same diameter, and 4 apterous adults of Myzus persicae were released. After a day, 10% emulsifiable concentrates (or 10% wettable powders) of compounds of the present invention were diluted with water containing a spreader to obtain 500 ppm solutions, and the solution were sprayed from a rotary spray tower (2.5 mg/cm^2). The dishes were covered with lids and placed in an incubator at 25° C. 6 Days after, dead insects were counted, and the mortality was calculated by using the same equation as in Test Example 1. The test was carried out in duplicate.

The subject of series [4] is Aphis gossypii. As to the kind of experiment: Insecticidal Test on Aphis gossypii. The class given is in vivo. The conditions noted are these: foliar, 144 h. On the procedure: as §1, with “cucumber” for “Canarium album”, “Aphis gossypii” for “Myzus persicae”
The test system of series [5] is Myzus persicae. The experiment in a line: Soil Irrigation Test on Myzus persicae. The class given is in vivo. The settings on record: 144 h, 100 ppm solution, 10 ml soil irrigation of cabbage seedlings, greenhouse, 6 days after release of insects. On the procedure: 10% emulsifiable concentrates of compounds of the present invention were diluted with tap water to obtain 100 ppm solutions. The soil around the bases of cabbage seedlings (at the 2.5 true leaf stage) planted in plastic cups was irrigated with 10 ml of the solutions, and the cups were placed in a greenhouse. One day after the irrigation, adults of Myzus persicae were released at a ratio of 20 insects per seedling, and the seedlings were incubated in the greenhouse. 6 Days after the release of the insects, living insects were counted, and the control value was calculated from the following equation.
Control value (%)={1−(Cb×Tai)/(Cai×Tb)}×100
Cb: the number of insects in a non-treated area before treatment
Cai: the final number of living insects in a non-treated area
Tb: the number of insects in a treated area before treatment
Tai: the final number of living insects in a treated area

The mark [6] stands for this setting: 500 ppm solution sprayed, apterous adults on cucumber leaf discs, 25° C., 6 days after, read-out: mortality.
Where [7] appears, read: 500 ppm solution sprayed on kidney bean leaves, adults, 25° C., 5 days after, read-out: mortality.
Where [8] appears, read: 500 ppm solution, rice sheaths soaked, 2nd-instar nymphs, 25° C., 6 days after, read-out: mortality (%).
Where [9] appears, read: 500 ppm solution sprayed, apterous adults on leaf discs, 25° C., 6 days after, read-out: mortality.

28 molecules from patent US20130338367A1, “PYRAZOLE DERIVATIVES AND PESTICIDES” (Nissan Chemical Industries, Ltd., priority 2011, published 2013) can be followed below.

Structures can show the parent of a compound that is named as a salt. Where two headings read alike, the source gives them in different places.

The term mortality denotes the percentage killed. For `Cc1nn(-c2cccnc2)cc1N(C)C(=O)OC(C)(C)C` [1-012, tert-butyl methyl{3-methyl-1-(pyridin-3-yl)-1H-pyrazol-4-yl}carbamate], the mortality at 500 ppm in series [1] (in Oryza sativa), in series [2] and in series [3] was no less than 90% throughout.

As to `CSCCCN(C(C)=O)c1cn(-c2cccnc2)nc1Cl` [1-153, N-{3-chloro-1-(pyridin-3-yl)-1H-pyrazol-4-yl}-N-{3-(methylthio)propyl}acetamide], the mortality at 500 ppm in series [4] (setting [6]) and in series [2] (setting [7]) was no less than 90% throughout.

As a reminder, the pest or weed control is the degree to which the test organism was suppressed or injured, in per cent. Consider `CCN(C(=O)[C@H](C)CSC)c1cn(-c2cccnc2)nc1Cl` [1-048(S)-(−), (S)-(−)-N-{3-chloro-1-(pyridin-3-yl)-1H-pyrazol-4-yl}-N-ethyl-2-methyl-3-(methylthio)propanamide], for which the mortality at 500 ppm in series [1] (setting [8]), in series [4] (setting [6]), in series [2] (setting [7]) and in series [3] (setting [9]) was no less than 90% each time. The pest or weed control at 100 ppm in series [5] is no less than 90%.

As a reminder, the melting point is the temperature of the solid-liquid transition. `Clc1nn(-c2cccnc2)cc1NCC1CC1` [B-014, 3-chloro-N-(cyclopropylmethyl)-1-(pyridin-3-yl)-1H-pyrazole-4-amine] gave a melting point of 72 to 78 °C.

Consider `O=C(Nc1cnn(-c2cccnc2)c1)C(Br)CCCBr` (stereo not shown) [1-025, 2,5-dibromo-N-{1-(pyridin-3-yl)-1H-pyrazol-4-yl}pentanamide], for which the melting point lay within 114 to 115 °C.

For `CCSC(C)C(=O)N(CC)c1cnn(C(C)(C)C)c1Cl` (stereo not shown) [1-001, N-(1-tert-butyl-5-chloro-1H-pyrazol-4-yl)-N-ethyl-2-(ethylthio)propanamide], the mortality at 500 ppm in series [4] (setting [6]) and in series [3] (setting [9]) was no less than 90% throughout.

Molecule `CN(C(=O)OC(C)(C)C)c1cn(-c2cccnc2)nc1Cl` [1-037, tert-butyl 3-chloro-1-(pyridin-3-yl)-1H-pyrazol-4-yl(methyl)carbamate] returned a mortality at 500 ppm in series [2] of no less than 90%.

Regarding `CCNc1cn(-c2cccnc2)nc1C` (as salt: hydrochloride) [B-002, N-ethyl-3-methyl-1-(pyridin-3-yl)-1H-pyrazole-4-amine], the melting point lay in the range of 113 to 116 °C.

Turning to `CSCCC(=O)N(C)c1cn(-c2cccnc2)nc1Cl` [1-038, N-{3-chloro-1-(pyridin-3-yl)-1H-pyrazol-4-yl}-N-methyl-3-(methylthio)propanamide], the pest or weed control at 100 ppm in series [5] was no less than 90%.

For `Cc1nn(-c2cccnc2)cc1N` [A-009, 3-methyl-1-(pyridin-3-yl)-1H-pyrazole-4-amine dihydrochloride], the mortality at 500 ppm in series [4] (setting [6]) and in series [3] (setting [9]) was no less than 90% in each case.

Regarding `C#CCNc1cn(-c2cccnc2)nc1Cl` [B-008, 3-chloro-N-(prop-2-ynyl)-1-(pyridin-3-yl)-1H-pyrazole-4-amine], the mortality at 500 ppm in series [1] (setting [8]), in series [4] (setting [6]) and in series [3] (setting [9]) was no less than 90% throughout.

For the molecule `CSC1CCCN(c2cnn(-c3cccnc3)c2)C1=O` (stereo not shown) [1-028, 3-(methylthio)-1-{1-(pyridin-3-yl)-1H-pyrazol-4-yl}piperidin-2-one], the mortality at 500 ppm in series [1] (setting [8]), in series [4] (setting [6]), in series [2] (setting [7]) and in series [3] (setting [9]) was no less than 90% in each case.

With `CCN(C(=O)OC(C)(C)C)c1cn(-c2cccnc2)nc1Cl` [1-056, tert-butyl 3-chloro-1-(pyridin-3-yl)-1H-pyrazol-4-yl(ethyl)carbamate], the mortality at 500 ppm in series [4] and in series [2] was no less than 90% in each case.

Turning to `CCSC(C)C(=NOC)Nc1cn(-c2cccnc2)nc1Cl` (stereo not shown) [1-356, N-{3-chloro-1-(pyridin-3-yl)-1H-pyrazol-4-yl}-2-(ethylthio)-N′-methoxypropanimidamide], the mortality at 500 ppm in series [1] (setting [8]) and in series [2] (setting [7]) was no less than 90% each time.

With `CCN(C(=O)C(CSC)OC)c1cn(-c2cccnc2)nc1Cl` (stereo not shown) [1-160, N-{3-chloro-1-(pyridin-3-yl)-1H-pyrazol-4-yl}-N-ethyl-2-methoxy-3-(methylthio)propanamide], in series [5], the pest or weed control at 100 ppm is no less than 90%.

On to `CCN(C(=O)C(CSC)=NOC)c1cn(-c2cccnc2)nc1Cl` [1-143, N-{3-chloro-1-(pyridin-3-yl)-1H-pyrazol-4-yl}-N-ethyl-2-(methoxyimino)-3-(methylthio)propanamide], for which the pest or weed control at 100 ppm in series [5] was no less than 90%.

On to `CS(=O)(=O)Nc1cnn(-c2cccnc2)c1` [2-001], for which the melting point was in the range of 140 to 150 °C.

Turning to `C=CC(=O)N(CC)c1cn(-c2cccnc2)nc1Cl` [1-152, N-{3-chloro-1-(pyridin-3-yl)-1H-pyrazol-4-yl}-N-ethylacrylamide], the mortality at 500 ppm in series [2] (setting [7]) is no less than 90%.

`Cc1c(NC(=O)OC(C)(C)C)cnn1-c1cccnc1` [5-001, tert-butyl 5-methyl-1-(pyridin-3-yl)-1H-pyrazol-4-ylcarbamate]: the mortality at 500 ppm in series [4] (setting [6]) is no less than 90%.

`CC(C)(C)OC(=O)Nc1cn(-c2cccnc2)nc1Br` [1-188, tert-butyl 3-bromo-1-(pyridin-3-yl)-1H-pyrazol-4-ylcarbamate]: the mortality at 500 ppm in series [1] (setting [8]) and in series [2] (setting [7]) was no less than 90% throughout.

On to `CNc1cn(-c2cccnc2)nc1C` [A-001, N,3-dimethyl-1-(pyridin-3-yl)-1H-pyrazole-4-amine dihydrochloride], for which the mortality at 500 ppm in series [4] (setting [6]) is no less than 90%.

With `CN(C1=NCCS1)c1cn(-c2cccnc2)nc1Cl` [3-001, N-{3-chloro-1-(pyridin-3-yl)-1H-pyrazol-4-yl}-N-methyl-4,5-dihydrothiazole-2-amine], the mortality at 500 ppm in series [2] (setting [7]) is no less than 90%.

Take `CSCC(=O)N(C)C(C)=Nc1cn(-c2cccnc2)nc1C` [3-004, N-methyl-N-[1-{3-methyl-1-(pyridin-3-yl)-1H-pyrazol-4-ylimino}ethyl]-2-(methylthio)acetamide]: the mortality at 500 ppm in series [1] (setting [8]) and in series [2] (setting [7]) was no less than 90% in each case. Further, in series [5], the pest or weed control at 100 ppm is no less than 90%.

In the case of `CCSC(C)C(=S)Nc1cn(-c2cccnc2)nc1Cl` (stereo not shown) [1-353, N-{3-chloro-1-(pyridin-3-yl)-1H-pyrazol-4-yl}-2-(ethylthio)propanethioamide], the mortality at 500 ppm in series [1] (setting [8]) was no less than 90%. The pest or weed control at 100 ppm in series [5] was no less than 90%.

For the molecule `CSCC(C)(C)C(=O)N(C)c1cn(-c2cccnc2)nc1Cl` [1-134, N-{3-chloro-1-(pyridin-3-yl)-1H-pyrazol-4-yl}-N,2,2-trimethyl-3-(methylthio)propanamide], the mortality at 500 ppm in series [1] (setting [8]), in series [4] (setting [6]), in series [2] (setting [7]) and in series [3] (setting [9]) was no less than 90% in each case. Further, the pest or weed control at 100 ppm in series [5] is no less than 90%.

Regarding `CC(C)(C)OC(=O)Nc1cn(-c2cccnc2)nc1Cl` [1-046, tert-butyl 3-chloro-1-(pyridin-3-yl)-1H-pyrazol-4-ylcarbamate], in series [2] (setting [7]), the mortality at 500 ppm was no less than 90%.

Regarding `Cc1nn(-c2cccnc2)cc1NC(=O)OC(C)(C)C` [1-011, tert-butyl 3-methyl-1-(pyridin-3-yl)-1H-pyrazol-4-ylcarbamate], the mortality at 500 ppm in series [1] (setting [8]), in series [4] (setting [6]), in series [2] (setting [7]) and in series [3] (setting [9]) was no less than 90% throughout. The pest or weed control at 100 ppm in series [5] is no less than 90%.

In the case of `CCCNc1cn(-c2cccnc2)nc1Cl` [B-006, 3-chloro-N-n-propyl-1-(pyridin-3-yl)-1H-pyrazole-4-amine], the mortality at 500 ppm in series [1] (setting [8]), in series [4] (setting [6]) and in series [3] (setting [9]) was no less than 90% throughout.
